# Measurements as given in patent publication US6737383B1, “Herbicidal oxadiazolidines” (priority 1999, dated 2004).
# How the values were obtained:
# [1] = test system: smallflower flatsedge; assay: Test B flood test smallflower flatsedge; assay type: in vivo, Cyperus difformis
# How it was run: (§1)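 Read-out is a visual response score from 0 (no effect) to 10 (complete control), assigned by comparison with untreated controls. Treatment was applied at the 2-leaf stage, and plants stayed in the greenhouse for twelve to sixteen days before scoring.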
# [2] = test system: bamyardgrass; assay: Test B flood test barnyardgrass; assay type: in vivo, Echinochloa crus-galli
# How it was run: as §1
# [3] = test system: duck salad; assay: Test B flood test duck salad; assay type: in vivo, Heteranthera limosa
# Description: At the same time, these crop and weed species were also treated with postemergence applications of test chemicals formulated in the same manner. Plants ranged in height from 2 to 18 cm (1- to 4-leaf stage) for postemergence treatments. Plant species in the flood test consisted of rice (Oryza sativa), smallflower flatsedge (Cyperus difformis), duck salad (Heteranthera limosa) and bamyardgrass (Echinochloa crus-galli) grown to the 2-leaf stage for testing. Treated plants and controls were maintained in a greenhouse for twelve to sixteen days, after which all species were compared to controls and visually evaluated. Plant response ratings, summarized in Table B, are based on a scale of 0 to 10 where 0 is no effect and 10 is complete control. A dash (−) response means no test result.
# [4] = test system: rape; assay: Test B pre/postemergence rape; assay type: in vivo, Brassica napus
# How it was run: (§2)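 Herbicidal effect was estimated by eye on a ten-point control scale after plants spent twelve to sixteen days in a greenhouse following soil or foliar treatment. Foliar sprays targeted plants at one to four leaves; all doses were formulated in a non-phytotoxic solvent with surfactant.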
# [5] = test system: pigweed; assay: Test B pre/postemergence pigweed; assay type: in vivo, Amaranthus retroflexus
# How it was run: as §2
# [6] = test system: purple nutsedge; assay: Test B pre/postemergence purple nutsedge; assay type: in vivo, Cyperus rotundus
# How it was run: as §2
# [7] = test system: blackgrass; assay: Test B pre/postemergence blackgrass; assay type: in vivo, Alopecurus myosuroides
# How it was run: as §2
# [8] = test system: bedstraw; assay: Test B pre/postemergence bedstraw; assay type: in vivo, Galium aparine
# How it was run: as §2
# [9] = test system: wild oat; assay: Test B pre/postemergence wild oat; assay type: in vivo, Avena fatua
# How it was run: as §2
# [10] = test system: morningglory; assay: Test B pre/postemergence morningglory; assay type: in vivo, Ipomoea hederacea
# How it was run: as §2
# [11] = test system: sugar beet; assay: Test B pre/postemergence sugar beet; assay type: in vivo, Beta vulgaris
# How it was run: as §2
# [12] = test system: giant foxtail; assay: Test B pre/postemergence giant foxtail; assay type: in vivo, Setaria faberii
# How it was run: as §2
# [13] = test system: corn; assay: Test B pre/postemergence corn; assay type: in vivo, Zea mays
# How it was run: as §2
# [14] = test system: wheat; assay: Test B pre/postemergence wheat; assay type: in vivo, Triticum aestivum
# How it was run: as §2
# [15] = test system: soybean; assay: Test B pre/postemergence soybean; assay type: in vivo, Glycine max
# How it was run: as §2
# [16] = test system: crabgrass; assay: Test B pre/postemergence crabgrass; assay type: in vivo, Digitaria sanguinalis
# How it was run: as §2
# [17] = test system: surinam grass; assay: Test B pre/postemergence surinam grass; assay type: in vivo, Brachiaria decumbens; settings: Postemergence
# How it was run: as §2
# [18] = test system: velvetleaf; assay: Test B pre/postemergence velvetleaf; assay type: in vivo, Abutilon theophrasti
# How it was run: as §2
# [19] = test system: cocklebur; assay: Test B pre/postemergence cocklebur; assay type: in vivo, Xanthium strumarium
# How it was run: as §2
# [20] = Rate 62 g/ha, flood test species, Pre-emergence, visual evaluation after twelve to sixteen days
# [21] = Rate 125 g/ha, under heading Pre-emergence, flood test species, visual evaluation after twelve to sixteen days
# [22] = Rate 250 g/ha, Pre-emergence (flood test species), scale 0 to 10, 0 is no effect, 10 is complete control
# [23] = Rate 500 g/ha, Pre-emergence section of Table B, 0 to 10 scale (0 no effect, 10 complete control)
# [24] = Postemergence, Rate 31 g/ha, visual rating, scale 0 to 10 (0 no effect, 10 complete control)
# [25] = Postemergence, Rate 62 g/ha, scale 0 to 10, 0 is no effect, 10 is complete control
# [26] = Postemergence, Rate 125 g/ha, scale of 0 to 10 where 0 is no effect and 10 is complete control
# [27] = Rate 62 g/ha, Preemergence, scale 0 to 10
# [28] = Rate 125 g/ha, Preemergence, scale 0 to 10 (0 no effect, 10 complete control)
# [29] = Rate 250 g/ha, Postemergence, scale 0 to 10, 0 is no effect, 10 is complete control
# [30] = Preemergence, Rate 31 g/ha, visual rating, scale 0 to 10 (0 no effect, 10 complete control)
# [31] = Preemergence, Rate 250 g/ha, scale 0 (no effect) to 10 (complete control)
smiles,measurement,setting,value
CC(C)N(C(=O)n1oc(=O)n(CCc2ccccc2)c1=O)c1ccc(Cl)cc1 [Compound 538],"Plant response rating, S. Flatsedge (0 to 10 scale, 0 is no effect, 10 is complete control)",[1]; [20],0
same,"S. Flatsedge plant response rating (0 to 10 scale, 0 is no effect, 10 is complete control)",[1]; [21],0
same,S. Flatsedge plant response rating,[1]; [22],0
same,S. Flatsedge plant response rating,[1]; [23],0
same,"Plant response rating, Barnyardgrass (0 to 10 scale, 0 is no effect, 10 is complete control)",[2]; [20],0
same,"Barnyardgrass plant response rating (0 to 10 scale, 0 is no effect, 10 is complete control)",[2]; [21],0
same,Barnyardgrass plant response rating,[2]; [22],0
same,Barnyardgrass plant response rating,[2]; [23],0
same,"Plant response rating, Ducksalad (0 to 10 scale, 0 is no effect, 10 is complete control)",[3]; [20],0
same,"Ducksalad plant response rating (0 to 10 scale, 0 is no effect, 10 is complete control)",[3]; [21],0
same,Ducksalad plant response rating,[3]; [22],0
same,Ducksalad plant response rating,[3]; [23],0
CCOP(=O)(OCC)C(C)n1c(=O)on(C(=O)N(c2ccc(F)cc2F)C(C)C)c1=O (stereo not drawn) [Compound 776],Rape plant response rating,[4]; [24],0
same,"Plant response rating, Rape",[4]; [25],2
same,Rape plant response rating,[4]; [26],2
same,Rape plant response rating,[4]; [27],0
same,Rape plant response rating,[4]; [28],0
same,Rape plant response rating,[4]; [29],2
same,Redroot pigweed plant response rating,[5]; [24],0
same,"Plant response rating, Redroot pigweed",[5]; [25],2
same,Redroot pigweed plant response rating,[5]; [26],2
same,Redroot pigweed plant response rating,[5]; [27],0
same,Redroot pigweed plant response rating,[5]; [28],0
same,Redroot pigweed plant response rating,[5]; [29],2
same,Nutsedge plant response rating,[6]; [24],0
same,"Plant response rating, Nutsedge",[6]; [25],0
same,Nutsedge plant response rating,[6]; [26],0
same,Nutsedge plant response rating,[6]; [27],0
same,Nutsedge plant response rating,[6]; [29],0
same,Blackgrass plant response rating,[7]; [24],2
same,"Plant response rating, Blackgrass",[7]; [25],2
same,Blackgrass plant response rating,[7]; [26],2
same,Blackgrass plant response rating,[7]; [30],0
same,Blackgrass plant response rating,[7]; [31],2
same,Blackgrass plant response rating,[7]; [27],0
same,Blackgrass plant response rating,[7]; [28],0
same,Blackgrass plant response rating,[7]; [29],2
same,Bedstraw plant response rating,[8]; [24],0
same,"Plant response rating, Bedstraw",[8]; [25],0
same,Bedstraw plant response rating,[8]; [26],3
same,Bedstraw plant response rating,[8]; [30],0
same,Bedstraw plant response rating,[8]; [31],0
same,Bedstraw plant response rating,[8]; [27],0
same,Bedstraw plant response rating,[8]; [28],0
same,Bedstraw plant response rating,[8]; [29],3
same,Wild oats plant response rating,[9]; [24],0
same,"Plant response rating, Wild oats",[9]; [25],0
same,Wild oats plant response rating,[9]; [27],2
same,Wild oats plant response rating,[9]; [28],2
same,Wild oats plant response rating,[9]; [29],0
same,Morningglory plant response rating,[10]; [24],4
same,"Plant response rating, Morningglory",[10]; [25],7
same,Morningglory plant response rating,[10]; [26],7
same,Morningglory plant response rating,[10]; [27],0
same,Morningglory plant response rating,[10]; [28],2
same,Sugarbeets plant response rating,[11]; [24],0
same,"Plant response rating, Sugarbeets",[11]; [25],0
same,Sugarbeets plant response rating,[11]; [27],0
same,Sugarbeets plant response rating,[11]; [28],0
same,Sugarbeets plant response rating,[11]; [29],3
same,Giant foxtail plant response rating,[12]; [24],2
same,"Plant response rating, Giant foxtail",[12]; [25],2
same,Giant foxtail plant response rating,[12]; [26],2
same,Giant foxtail plant response rating,[12]; [30],5
same,Giant foxtail plant response rating,[12]; [31],9
same,Giant foxtail plant response rating,[12]; [27],9
same,Giant foxtail plant response rating,[12]; [28],9
same,Giant foxtail plant response rating,[12]; [29],2
same,Corn plant response rating,[13]; [24],0
same,"Plant response rating, Corn",[13]; [25],0
same,Corn plant response rating,[13]; [26],0
same,Corn plant response rating,[13]; [30],0
same,Corn plant response rating,[13]; [31],1
same,Corn plant response rating,[13]; [27],0
same,Corn plant response rating,[13]; [28],0
same,Corn plant response rating,[13]; [29],0
same,Wheat plant response rating,[14]; [24],0
same,"Plant response rating, Wheat",[14]; [25],0
same,Wheat plant response rating,[14]; [27],0
same,Wheat plant response rating,[14]; [28],2
same,Wheat plant response rating,[14]; [29],0
same,Soybean plant response rating,[15]; [24],1
same,"Plant response rating, Soybean",[15]; [25],2
same,Soybean plant response rating,[15]; [27],0
same,Soybean plant response rating,[15]; [28],0
same,Soybean plant response rating,[15]; [29],2
same,Crabgrass plant response rating,[16]; [24],2
same,"Plant response rating, Crabgrass",[16]; [25],2
same,Crabgrass plant response rating,[16]; [26],2
same,Crabgrass plant response rating,[16]; [30],5
same,Crabgrass plant response rating,[16]; [31],9
same,Crabgrass plant response rating,[16]; [27],5
same,Crabgrass plant response rating,[16]; [28],8
same,Crabgrass plant response rating,[16]; [29],2
same,B. signalgrass plant response rating,"[17]; Rate 31 g/ha, visual rating, scale 0 to 10 (0 no effect, 10 complete control)",0
same,"Plant response rating, B. signalgrass","[17]; Rate 62 g/ha, scale 0 to 10, 0 is no effect, 10 is complete control",0
same,B. signalgrass plant response rating,"[17]; Rate 125 g/ha, scale of 0 to 10 where 0 is no effect and 10 is complete control",0
same,B. signalgrass plant response rating,"[17]; Rate 250 g/ha, scale 0 to 10, 0 is no effect, 10 is complete control",0
same,Velvetleaf plant response rating,[18]; [24],2
same,"Plant response rating, Velvetleaf",[18]; [25],3
same,Velvetleaf plant response rating,[18]; [27],0
same,Velvetleaf plant response rating,[18]; [28],0
same,Velvetleaf plant response rating,[18]; [29],3
same,Cocklebur plant response rating,[19]; [24],0
same,"Plant response rating, Cocklebur",[19]; [25],0
same,Cocklebur plant response rating,[19]; [26],0
same,Cocklebur plant response rating,[19]; [30],0
same,Cocklebur plant response rating,[19]; [29],0
